In paper PMC4108065, “Inflammation and pancreatic cancer: molecular and functional interactions between S100A8, S100A9, NT-S100A8 and TGFβ1” (Cell Communication and Signaling : CCS, 2014):

Assays:
[1] = tested on: Smad4 silenced MiaPaCa2 IκBα and S6RP phosphorylation; experiment: Signaling western blot in Smad4 silenced MiaPaCa2; assay type: cell-based, human; conditions: Smad4-siRNA MiaPaCa2 vs MiaPaCa2, 10 minutes, 0.02 ng/ml TGFβ1, 10 nM S100A8, 50 nM NT-S100A8; for effect of Smad4 silencing on inhibition of NF-κB: IκBα Ser32 western blot; for effect of silenced Smad4 on S6RP phosphorylation: western blot
Experimental: The pancreatic cancer cell lines used were: Panc1 and Suit2, donated by Prof Aldo Scarpa (University of Verona, Italy); BxPC3, from Dr Andrea Galli (University of Florence, Italy); MiaPaCa2, Capan1 and the human embryonic kidney Hek293 cell lines, supplied by the American Type Culture Collection (Manassas, VA, USA). BxPC3, Capan1 and Panc1 were cultured in RPMI (Gibco/BRL, Gaithhersburg, MD, USA) supplemented with 10% (BxPC3 and Panc1) and 20% (Capan1) fetal calf serum (FCS) (Gibco/BRL), 1% L-glutamine (Gibco/BRL) and 0.1% gentamycin (Gibco/BRL). MiaPaCa2 and Hek293 were cultured in DMEM (Gibco/BRL) supplemented with 10% FCS, 2% L-glutamine and 0.1% Gentamycin. BxPC3 cells were transfected with the expression vector pBK-cytomegalovirus (CMV)-SMAD4/DPC4, as previously described. One SMAD4/DPC4-expressing clone (BxPC3-SMAD4+) was used for the experiments. Smad4 silencing of MiaPaCa2 cells was performed as previously described.
(§1) Five million cells were seeded in Petri dishes (ø 10 cm) and cultured for 24 hours in their respective complete media prior to starting the experiments. Cells remained non-stimulated (negative control) or were stimulated with 50 mU insulin (positive control) (Insuman Rapid, Sanofi-Aventis, Deutschland, GmbH) for 10 min; in parallel, experimental cells were stimulated with 50 nM NT-S100A8, 0,02 ng/ml TGFβ1 (ProSpec-Tany TechnoGene), 10 nM S100A8 and 10 nM S100A9 alone or combined for 10 min. Following stimulations, Petri dishes were immediately transferred into an ice bath, and the cells were washed twice with cold PBS, re-suspended in 100 μl of cold lysis buffer [20 mM Tris–HCl, pH 7.5, 150 mM NaCl, 1 mM EDTA, 1% Triton-X 100, 50 mM NaF, 10 mM Na4P2O7,1 mM Na3VO4, and 10% protease inhibitor cocktail (Sigma Aldrich SRL, Milano, Italy)]. Lysates were centrifuged for 10 min at 14,000 rpm at 4°C and, in the supernatants, total proteins were measured using the Bio-Rad protein assay (Bio-Rad Laboratories, Milano, Italy). Each experiment was performed at least in triplicate.
(§2) For each sample, 40 μg proteins were electrophoresed through 4–12% NuPAGE®NovexBis-Tris SDS–PAGE Gel or 3-8% NuPAGE®NovexTris-Acetate SDS–PAGE Gel (Invitrogen S.R.L., Life Technologies, Monza, Italy) and electrophoretically transferred to Nitrocellulose Membrane (iBlot® Transfer Stack, Invitrogen S.R.L.) by means of the iBlotTMDry Blotting System (Invitrogen S.R.L.). Following incubation for 1 hour in a blocking buffer [5% low fat powder milk re-suspended in PBS-T (PBS with 0.1% Tween-20)], membranes were incubated overnight at 4°C with the primary antibodies [antiphospho IkB-α (Ser^32) (Santa Cruz Biotechnology, Inc., Santa Cruz, CA, USA); anti-phospho-Akt (Ser^473), anti-phospho-Akt (Thr^308), anti-Akt and anti-phospho-S6 Ribosomal Protein (Ser^235/236), anti-cleaved Caspase-3, anti-phospho-Stat3 Tyr^705, anti-β-actin, anti-phospho mTOR (Ser^2448, Ser^2481) (Cell Signaling Technology, Danvers, MA, USA); anti-RAGE (R&D Systems, Minneapolis, MN, USA) ] diluted 1:5000 (β-actin), 1:2000 (mTOR, cleaved Caspase-3, Stat3) or 1:3000 (all the others) in the blocking buffer. The blots, washed three times in PBS-T for 15 min, were incubated with […] anti-rabbit (Cell Signaling Technology) or anti-goat (Sigma Aldrich) secondary antibodies and then washed three times in PBS-T for 15 min and developed with the ECL Advance Western Blot Detection Kit (GE Healthcare Technologies, Milan, Italy).

TGFβ1 = target: T1, TGFβ1 (Homo sapiens, UniProt P01137); experiment: Molecular interactions by MALDI-TOF/MS and co-immunoprecipitation; assay type: binding; conditions: for co-immunoprecipitation with TGFβ1: 1.6 μM equimolar with CaCl2, 37°C overnight, IP anti-S100A8 or anti-S100A9, WB TGFβ1; for homo-oligomer formation: 11.3 μM with Ca2+; for homo-oligomer formation / hetero-dimer formation with TGFβ1: overnight, MALDI-TOF/MS; for hetero-dimer formation with TGFβ1: 1:1 molar ratio (11.3 μM) with Ca2+
T1 construct: purchased ProSpec-Tany TechnoGene
T1 sequence (P01137 279-390 limits assumed): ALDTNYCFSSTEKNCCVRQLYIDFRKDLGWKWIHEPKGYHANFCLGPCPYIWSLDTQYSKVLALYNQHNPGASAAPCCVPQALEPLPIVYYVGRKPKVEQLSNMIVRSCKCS
Experimental: Co-immunoprecipitation experiments were performed using protein G-Sepharose (GE Healthcare Technologies). TGFβ1 (1.6 μM) was incubated in equimolar concentrations with S100A8 or S100A9 at 37°C overnight in the presence of equimolar CaCl2. The mixtures were then incubated for 2 h with anti-S100A8 polyclonal or anti-S100A9 monoclonal antibodies (Santa Cruz Biotechnology) preadsorbed to protein G. Immunoprecipitates, washed three times in 10 mM Tris HCl containing 40 mM NaCl, pH 7.5, were boiled in an SDS-PAGE sample buffer before electrophoresis on 4–12% NuPAGE®NovexBis-Tris SDS–PAGE gels. After protein transfer, nitrocellulose membranes were blotted with anti-TGFβ1 antibody (Cell Signaling Technology).
S100A8, S100A9 and TGFβ1 and calcium ions (CaCl2) were mixed at an equimolar concentration (11.3 μM) in an aqueous solution. Each mixture was incubated overnight at 37°C prior to MALDI-TOF/MS analysis. S100A8, S100A9 and TGFβ1 mixtures were diluted 1/10 in 50 μL of 0.1% TFA aqueous solution, after which 5 microliters of each dilution were added to 5 μl of Sinapinic acid (SA); 1 μl of the resulting mixture was deposited in duplicate on the steel sample holder and allowed to dry. External mass calibration (Protein Calibration Standard II, BrukerDaltonics) was based on monoisotopic values of [M + H] + of Trypsinogen, Protein A, Albumin-Bovine (BSA), at m/z 23982, 44613, 66500, respectively. MALDI-TOF/MS measurements were performed using an Ultraflex II MALDI-TOF instrument (BrukerDaltonics), operating in linear positive ion mode. Ions were formed using a pulsed UV laser (λ = 337 nm) beam. The instrumental conditions were: IS1 = 25 kV; IS2 = 23.35 kV; delay time = 70 nsec. All chemicals and solvents were purchased from Sigma-Aldrich (Sigma Aldrich). One spectrum was collected for each sample, an average of 1,000 laser shots being obtained from the respective two replicate spots.

[2] = tested on: Akt phosphorylation sites Thr308 and Ser473; experiment: Akt signaling, western blot in PDAC cell lines; assay type: cell-based, human; conditions: BxPC3, Capan1, MiaPaCa2, Panc1, 10 min; for Akt Ser473 phosphorylation: 10 nM S100A8, S100A9, S100A8/A9, 50 nM NT-S100A8; for Akt Thr308 phosphorylation: 10 nM S100A8, S100A9, S100A8/A9, 50 nM NT-S100A8, 0.02 ng/ml TGFβ1
Experimental: as §1, §2

S100A8: inflammatory calcium binding protein S100A8 (ProSpec-Tany TechnoGene)
effect of Smad4 silencing on inhibition of NF-κB [1]: reduced the inhibition of NF-κB
effect of silenced Smad4 on S6RP phosphorylation [1]: markedly reduced S6RP phosphorylation
co-immunoprecipitation with TGFβ1 (TGFβ1): TGFβ1 was detected
homo-oligomer formation (TGFβ1): formed homo-dimers
hetero-dimer formation with TGFβ1 (TGFβ1): formed hetero-dimers not only between themselves, but also with TGFβ1
Akt Ser473 phosphorylation [2]: reduced Akt Ser^473 phosphorylation in Capan1, MiaPaCa2 and Panc1 cells
Akt Thr308 phosphorylation [2]: induced in BxPC3, and reduced in the other cell lines

NT-S100A8: 14 N-terminal aminoacid peptide of S100A8, isolated from PDAC tissues (MLTELEKALNSIID; UniProt P05109 1-14, looked up, fragment)
effect of silenced Smad4 on S6RP phosphorylation [1]: markedly reduced S6RP phosphorylation
Akt Ser473 phosphorylation [2]: augmented in the same cell lines
Akt Thr308 phosphorylation [2]: reduced in Capan1 and MiaPaCa2

S100A9: inflammatory calcium binding protein S100A9, S100A8 binding partner
co-immunoprecipitation with TGFβ1 (TGFβ1): TGFβ1 was detected
homo-oligomer formation (TGFβ1): formed homo-dimers and homo-trimers
hetero-dimer formation with TGFβ1 (TGFβ1): formed hetero-dimers not only between themselves, but also with TGFβ1
Akt Ser473 phosphorylation [2]: reduced Akt Ser^473 phosphorylation in Capan1, MiaPaCa2 and Panc1 cells
Akt Thr308 phosphorylation [2]: induced in BxPC3, and reduced in the other cell lines

TGFβ1: transforming growth factor beta 1 (ProSpec-Tany TechnoGene)
effect of Smad4 silencing on inhibition of NF-κB [1]: reduced the inhibition of NF-κB
effect of silenced Smad4 on S6RP phosphorylation [1]: markedly reduced S6RP phosphorylation
homo-oligomer formation (TGFβ1): formed homo-dimers and homo-trimers
Akt Thr308 phosphorylation [2]: inhibited Akt Thr^308, but not Akt Ser^473 phosphorylation in Smad4 expressing cells
